Assay [1] deals with T1, recombinant feline FP receptor (Felis catus, UniProt A0ABI7XJ69). Put plainly: Radioligand binding competition vs 3H-17-phenyl PGF2α, recombinant feline FP receptor. More on the design: species or system cat. As for the experimental part: Plasma membrane preparations of HEK 293 cells stably transfected with the human or feline FP receptor were obtained as follows. Cells washed with TME buffer were scraped from the bottom of the flasks and homogenized for 30 sec using a Brinkman PT 10/35 polytron. TME buffer was added as necessary to achieve a 40 ml volume in the centrifuge tubes. […] The cell homogenate was centrifuged at 19,000 rpm for 20 min at 4-6° C. using a Beckman Ti-60 rotor. The pellet was then resuspended in TME buffer to provide a final protein concentration of 1 mg/ml, as determined by Biorad assay. […] Incubations were for 60 min at 25° C. and were terminated by the addition of 4 ml of ice-cold 50 mM TRIS-HCl followed by rapid filtration through Whatman GF/B filters and three additional 4 ml washes in a cell harvester (Brandel).
T1 sequence (A0ABI7XJ69 entry or part of it): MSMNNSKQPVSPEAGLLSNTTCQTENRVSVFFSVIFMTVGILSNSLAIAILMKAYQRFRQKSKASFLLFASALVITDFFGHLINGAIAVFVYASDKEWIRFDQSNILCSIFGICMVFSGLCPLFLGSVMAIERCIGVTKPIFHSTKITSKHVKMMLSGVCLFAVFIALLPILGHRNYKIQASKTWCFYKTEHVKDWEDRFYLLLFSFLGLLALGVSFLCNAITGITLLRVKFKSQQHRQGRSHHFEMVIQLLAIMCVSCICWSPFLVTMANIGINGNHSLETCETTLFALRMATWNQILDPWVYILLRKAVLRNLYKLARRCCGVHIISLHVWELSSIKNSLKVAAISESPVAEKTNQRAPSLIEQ

Assay [2] has as its target T2, human FP receptor (Homo sapiens, UniProt P43088). Put plainly: Total inositol phosphate accumulation, HEK-293 cells with recombinant human FP receptor. The settings on record: for % maximal total inositol phosphate accumulation mean χ ± SEM: reference 17-phenyl PGF2α 10^−6 M. It counts as cell-based. Also on record: expressed in transfected cells. The protocol: HEK-293 cells were grown in DMEM with 10% fetal bovine serum (FBS), 250 μg ml^−1 G418 (Life Technologies) and 200 μg ml^−1 gentamicin or penicillin/streptomycin. […] For transfection, the cells were grown to 50-60% confluency on 10 cm plates. The plasmid pCEP4 incorporating cDNA inserts for the human FP receptor (20 μg) was added to 500 μl of 250 mM CaCl2. HEPES buffered saline×2 (2×HBSS, 280 mM NaCl, 20 mM HEPES acid, 1.5 mM Na2 HPO4, pH 7.05-7.12) was then added dropwise to a […], with continuous vortexing at room temperature. After 30 min, 9 ml DMEM were added to the mixture. The DNA/DMEM/calcium phosphate mixture was then added to the cells, which had been previously rinsed with 10 ml phosphate buffered saline (PBS). The cells were then incubated for 5 h. at 37° C. in humidified 95% air/5% CO2. The calcium phosphate solution was then removed and the cells were treated with 10% glycerol in DMEM for 2 min. The glycerol solution was then replaced by DMEM with 10% fetal bovine serum (FBS). The cells were incubated overnight and the medium was replaced by DMEM/10% FBS containing 250 μg ml^−1 G418 and penicillin/streptomycin. The following day hygromycin B was added to a final concentration of 200 μg ml^−1.
Receptor-mediated phosphoinositide (PI) hydrolysis was determined by measuring the accumulation of total inositol phosphates (IP) in cells preincubated with ^3H-myoinositol. Stable cell lines of HEK 293 cells expressing human or cat FP receptors were plated in 10 cm dishes (10^6 cells per dish in DMEM with 10% FBS). The following day, the cells were incubated with 18 μCi myo-[2 ^3H] inositol (Amersham; […]) in 6 ml of DMEM with 10% FBS for 24 hours at 37° C. The cells were then rinsed twice with phosphate buffered saline (PBS), incubated for 5 min with 1 ml of trypsin-EDTA, and suspended in 10 ml DMEM containing 25 mM HEPES buffer. Cells were pelleted at 1000 rpm and resuspended in DMEM/25 mM HEPES containing 10 mM LiCl for 10 minutes. Aliquots of 200 μl cell suspension were incubated with 50 μl drug for 30 minutes at 37° C. (duplicate determination), and agonist stimulation was terminated with a 750 μl mixture of chloroform:methanol:4N HCl (100:200:2), followed by addition of 250 μl of chloroform and 0.5 N HCl for extraction of inositol phosphates. A 750 μl volume of the aqueous layer was loaded on columns packed with 0.5 ml of Dowex AG 1-X8 anion-exchange resin (formate form, 100-200 mesh; BioRad) to separate radiolabeled components. The elution procedure consisted of three 3 ml washes with 5 mM inositol, then two elutions with 750 μl of 1.3 M ammonium formate with 0.1 M formic acid. The eluate was mixed with 10 ml Aquasol scintillation fluid (Packard Instrument Co.) and total [^3H] inositol phosphates was determined by a liquid scintillation counter.

Assay [3] addresses T1, recombinant feline FP receptor. In words: Total inositol phosphate accumulation, HEK-293 cells with recombinant feline FP receptor. It counts as cell-based, cat. The following applies: read-out: E.C.50, total inositol phosphate accumulation. As for the experimental part: Ten days after transfection, hygromycin B resistant clones were individually selected and transferred to a separate well on a 24 well plate. At confluence each clone was transferred to one well of a 6 well plate, and then expanded in a 10 cm dish. Cells were maintained under continuous hygromycin selection until use. The stable cat FP receptor transfectants were similarly prepared using […]. Again cells were grown to 50-60% confluency on 10 cm plates and the plasmid pCEP4, incorporating cDNA inserts for the feline FP receptor, was transfected using lipofectin. Hygromycin B selection was started 48 hr post-transfection. Eight days after transfection, hygromycin B resistant clones were selected and transferred to 24 well plates. Ca^2+ signaling studies on recombinant cat and human FP receptors were performed in an identical manner to that described for the CRL 1497 cell studies.
Receptor-mediated phosphoinositide (PI) hydrolysis was determined by measuring the accumulation of total inositol phosphates (IP) in cells preincubated with ^3H-myoinositol. Stable cell lines of HEK 293 cells expressing human or cat FP receptors were plated in 10 cm dishes (10^6 cells per dish in DMEM with 10% FBS). […] The eluate was mixed with 10 ml Aquasol scintillation fluid (Packard Instrument Co.) and total [^3H] inositol phosphates was determined by a liquid scintillation counter.

For assay [4], the target named is T2, human FP receptor. Put plainly: Radioligand binding competition vs 3H-17-phenyl PGF2α, recombinant human FP receptor. The following applies: for % specific binding mean χ ± SEM: vs 5nM 3H-17-phenyl PGF2α, n = 3. Also on record: expressed in transfected cells. As for the experimental part:
Plasma membrane preparations of HEK 293 cells stably transfected with the human or feline FP receptor were obtained as follows. Cells washed with TME buffer were scraped from the bottom of the flasks and homogenized for 30 sec using a Brinkman PT 10/35 polytron. TME buffer was added as necessary to achieve a 40 ml volume in the centrifuge tubes. TME is comprised of 100 mM TRIS base, 20 mM Mg Cl2, 2 m EDTA; physiological pH is achieved by adding 10 N HCl. The cell homogenate was centrifuged at 19,000 rpm for 20 min at 4-6° C. using a Beckman Ti-60 rotor. The pellet was then resuspended in TME buffer to provide a final protein concentration of 1 mg/ml, as determined by Biorad assay. Radioligand binding assays were performed in a 200 μl volume.
Incubations were for 60 min at 25° C. and were terminated by the addition of 4 ml of ice-cold 50 mM TRIS-HCl followed by rapid filtration through Whatman GF/B filters and three additional 4 ml washes in a cell harvester (Brandel).

T2 sequence (P43088 whole entry): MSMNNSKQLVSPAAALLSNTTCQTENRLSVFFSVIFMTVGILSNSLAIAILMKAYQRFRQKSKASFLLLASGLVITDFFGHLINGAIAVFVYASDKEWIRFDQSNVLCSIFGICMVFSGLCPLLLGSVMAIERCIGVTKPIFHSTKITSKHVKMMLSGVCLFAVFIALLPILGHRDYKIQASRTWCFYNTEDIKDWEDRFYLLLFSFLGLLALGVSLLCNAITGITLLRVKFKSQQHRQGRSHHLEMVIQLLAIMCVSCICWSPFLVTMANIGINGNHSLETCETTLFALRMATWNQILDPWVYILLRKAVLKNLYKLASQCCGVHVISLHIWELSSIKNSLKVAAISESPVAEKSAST

Turning to `O=C(O)CCC/C=C\C[C@@H]1[C@@H](/C=C/[C@@H](O)CCc2ccccc2)[C@H](O)C[C@@H]1O` [17-phenyl PGF2α, 17-phenyl prostaglandin F2α, reference compound], in assay [1] (radioligand binding), the “affinity for the feline receptor” value is “high affinity”. The IC50 in assay [1] (vs 5 nM 3H-17-phenyl PGF2α, feline FP receptor, read-out: inhibitory concentration50 (I.C.50), radioligand binding) is 43.5 nM; in assay [4] (vs 5 nM 3H-17-phenyl PGF2α, human FP receptor, read-out: I.C.50, radioligand binding), 2.3 nM. Further, the “% maximal total inositol phosphate accumulation mean χ ± SEM” value stood at 100 ± 1.3% in assay [2] (10^−6 M), 92.3 ± 0.9% in assay [2] (10^−7 M), 57.8 ± 2.0% in assay [2] (10^−8 M) and 14.7 ± 3.3% in assay [2] (10^−9 M). In addition, the EC50 in assay [2] (HEK-293 cells, recombinant human FP receptor, read-out: E.C.50, total inositol phosphate accumulation) turned out to be 8 nM; in assay [3], 9 nM. The “% specific binding mean χ ± SEM” value in assay [4] (10^−5 M) is recorded as 0 ± 0%; in assay [4] (10^−6 M), 1.7 ± 1.7%; in assay [4] (10^−7 M), 5.3 ± 1.5%; in assay [4] (10^−8 M) it was 24.0 ± 1.2%; in assay [4] (10^−9 M) it was 65.0 ± 1.0%; in assay [4] (10^−10 M) it was 98 ± 1.1%.
